Assay results reported in patent publication US12492208B2, “Crystal of pyrimidine compound” (TAIHO PHARMACEUTICAL CO., LTD., priority 2020, dated 2025).
Like-named read-outs stand apart in the source and are kept apart here.

Legend:
[1] = non-clinical tests; substrates of p-gp or Bcrp; cited from earlier work
[2] = test system: brain metastatic cancer; settings: clinical tests; cited from earlier work
[3] = Solid stability test; assay type: physicochemical; settings: for Amount of related substances after storage / Chemical purity after storage / change in the powder X-ray diffraction pattern / increase in related substances: 60° C. (closed system), 4 weeks
Procedure: The free-form type II crystals of the compound (I) and type II crystals thereof with 1 equivalent of fumaric acid obtained in the Examples and Comparative Examples were evaluated for solid stability after storage for 4 weeks. • Storage condition: 60° C. (closed system) • Storage period: 4 weeks • Stored amount: Approximately 30 mg • Storage container: Glass bottle
Approximately 1 mg of a sample was weighed, dissolved in approximately 1 mL of a liquid mixture of water/acetonitrile (1:1), and 5 μL of this solution was accurately measured. Changes in the amount of related substances (the amount of substances detected other compound (I)) were analyzed by HPLC by the following method. Hplc Analysis Method (Stability Test)
The amount of related substances in the sample solution was measured by HPLC analysis. Handling of the apparatuses, including data processing, was in accordance with the methods and procedures instructed for each apparatus. • Column: XSelect CSH C18 (4.6×150 mm, 3.5 μm) manufactured by Waters • UV detection: 246 nm • Column temperature: 40° C. • Flow rate: 1.0 mL/min • Sample cooler: 5° C. • Sample concentration: 1 mg/mL • Mobile phase A: Liquid mixture of 5 mmol/L ammonium formate buffer (pH 6.5)/acetonitrile (9:1) • Mobile phase B: Acetonitrile

[4] = Dynamic vapor sorption (DVS) test; assay type: physicochemical; settings: for hygroscopicity determination: from mass increase under 95% relative humidity; for Weight change rate, Adsorption / Weight change rate, Desorption: 25° C.
Procedure: Dynamic vapor sorption tests were conducted using a type II crystal of compound (I) with1 equivalent of fumaric acid, a free-form type II crystal of the same, a free-form type I crystal of the same, a type V crystal of the same with 1 equivalent of fumaric acid, and a crystal of the same with 1 equivalent of L-tartaric acid obtained in the Examples and Reference Examples.
The dynamic vapor sorption test was conducted for measurement according to the following conditions.
Approximately 10 mg of each sample was packed in a dedicated quartz holder, and the weight of the sample at each humidity was continuously measured and recorded under the following conditions.

[5] = Blood concentration measurement test; assay type: in vivo, female rats (Crl:CD (SD)); settings: rat; for AUC(0-t): read-out: AUC0-6hr
Procedure: Blood concentration measurement tests were conducted for the type I crystal of compound (I), the type II crystal of compound (I), and the type II crystal of compound (I) with 1 equivalent of fumarate obtained in the Examples. Specifically, 0.5% HPMC containing 0.1N hydrochloric acid was used for the type I crystal of compound (I) and 0.5% HPMC was used for the type II crystal of compound (I) and the type II crystal of compound (I) with 1 equivalent of fumaric acid to convert each crystal into the compound (I) (free-form) in terms of molecular weight so as to prepare suspensions of 100 mg/10 mL and 300 mg/10 mL. These administration solutions were orally administered to female rats (Crl:CD (SD), Charles River Laboratories Japan, Inc.) kept under feeding conditions at a volume of 10 mL/kg body weight using an oral administration sonde. After administration, the rats were returned to the rat cage and their conditions were checked. Water and feeding were freely available in the cage. At 0.5, 1, 2, 4, and 6 hours after administration, the rats were anesthetized with isoflurane, and approximately 80 μL of blood was collected from the jugular vein using a heparin-coated syringe and an injection needle (25 G).
The collected blood was ice-cooled and plasma was separated by centrifugation. After the blood collection was completed, the rats were returned to the rat cage and the state after awakening of anesthesia was checked. After the final blood collection, the depth of isoflurane anesthesia was checked. Then, the limbs were fixed in a supine position with a small animal experiment holding apparatus, and the abdomen was opened such that each rat was euthanized by exsanguination through an incision in the abdominal aorta and vena cava.
AUC0-6 hr (Area under the blood concentration-time curve for 0 to 6 hours after administration calculated by the trapezoidal method), Cmax (maximum blood concentration), and Tmax (time to reach maximum blood concentration) were calculated from the concentration of the compound (I) in each plasma measured by the MRM method using LC/MS/MS and quantified from the calibration curve using Phoenix WinNonlin (v6.4.0,Certara USA, Inc.).

[6] = female, Crl:CD (SD), plasma, po, 100 mg/kg
[7] = oral, 300 mg/kg, listed as Type I crystal of compound (I) (with hydrochloric acid)
[8] = oral, listed as type I crystal of compound (I) with hydrochloric acid
[9] = listed as Type II crystal with 1 equivalent of fumaric acid
[10] = oral, 100 mg/kg, listed as Type II crystal of compound (I) with 1 equivalent of fumaric acid
[11] = oral, 300 mg/kg, listed as Type II crystal of compound (I) with 1 equivalent of fumaric acid

SMILES | change in the powder X-ray diffraction pattern [3] | increase in related substances [3] | hygroscopicity determination [4] | Weight change rate, Adsorption ([4]; relative humidity 5%) [%] | Weight change rate, Desorption ([4]; relative humidity 5%) [%] | Weight change rate, Adsorption ([4]; relative humidity 20%) [%] | Weight change rate, Desorption ([4]; relative humidity 20%) [%] | Weight change rate, Adsorption ([4]; relative humidity 40%) [%] | Weight change rate, Desorption ([4]; relative humidity 40%) [%] | Weight change rate, Adsorption ([4]; relative humidity 60%) [%] | Weight change rate, Desorption ([4]; relative humidity 60%) [%] | Weight change rate, Adsorption ([4]; relative humidity 80%) [%] | Weight change rate, Desorption ([4]; relative humidity 80%) [%] | Weight change rate, Desorption ([4]; relative humidity 95%) [%] | AUC 0-6 hr increase when the dose was increased from 100 mg/kg to 300 mg/kg ([5]; oral) [times] | Cmax increase when the dose was increased from 100 mg/kg to 300 mg/kg ([5]; oral) [times] | Weight change rate, Adsorption ([4]; relative humidity 95%) [%] | other results
CCOc1cc2ncc(C#N)c(Nc3ccc(OCc4ccccn4)c(Cl)c3)c2cc1NC(=O)/C=C/CN(C)C [Neratinib] | – | – | – | – | – | – | – | – | – | – | – | – | – | – | – | – | – | brain penetration properties [1]: limited; effects against brain metastatic cancer [2]: sufficient effects of these agents could not be obtained
C=CC(=O)N1C[C@H](n2c(C#CC3CC3)c(C(=O)N[C@H](C)c3ccccc3)c3c(N)ncnc32)C[C@@H]1C [free-form type II crystal of compound (I)] [7-((3R,5S)-1-acryloyl-5-methylpyrrolidin-3-yl)-4-amino-6-(cyclopropylethynyl)-N—((R)-1-phenylethyl)-7H-pyrrolo[2,3-d]pyrimidine-5-carboxamide] | no change | almost no increase | almost non-hygroscopic | 0.01 | 0.01 | 0.02 | 0.03 | 0.05 | 0.06 | 0.08 | 0.08 | 0.10 | 0.11 | 0.12 | 1.5 | 1.2 | – | Amount of related substances after storage [3]: 0.12%; Chemical purity after storage [3]: 99.88%; Amount of related substances before storage [3]: 0.13%; Chemical purity before storage [3]: 99.87%; AUC0-6hr ([5]; oral, 100 mg/kg): 5.79 µM·h; Cmax ([5]; oral, 100 mg/kg): 1880 nM; Tmax ([5]; oral, 100 mg/kg): 1.50 h; AUC0-6hr ([5]; oral, 300 mg/kg): 8.53 µM·h; Cmax ([5]; oral, 300 mg/kg): 2250 nM; Tmax ([5]; oral, 300 mg/kg): 3.33 h
C=CC(=O)N1C[C@H](n2c(C#CC3CC3)c(C(=O)N[C@H](C)c3ccccc3)c3c(N)ncnc32)C[C@@H]1C [free-form type I crystal of compound (I), 7-((3R,5S)-1-acryloyl-5-methylpyrrolidin-3-yl)-4-amino-6-(cyclopropylethynyl)-N—((R)-1-phenylethyl)-7H-pyrrolo[2,3-d]pyrimidine-5-carboxamide] | – | – | almost non-hygroscopic | 0.01 | 0.01 | 0.04 | 0.04 | 0.10 | 0.13 | 0.26 | 0.60 | 0.50 | 0.69 | 0.72 | – | – | – | Cmax [5, 6]: 2670 nM; AUC(0-t) [5, 6]: 7.42 µM·h; Tmax ([5]; female, Crl:CD (SD), plasma, po, 100 mg/kg, read-out: Tmax): 0.75 h; AUC(0-t) ([5]; female, Crl:CD (SD), plasma, po, 300 mg/kg): 7.11 µM·h; Cmax [5, 7]: 2250 nM; Tmax [5, 7]: 3.25 h; AUC 0-6 hr increase when the dose was increased from 100 mg/kg to 300 mg/kg [5, 8]: 1.0 times; Cmax increase when the dose was increased from 100 mg/kg to 300 mg/kg [5, 8]: 0.8 times
C=CC(=O)N1C[C@H](n2c(C#CC3CC3)c(C(=O)N[C@H](C)c3ccccc3)c3c(N)ncnc32)C[C@@H]1C [type V crystal of compound (I) with 1 equivalent of fumaric ] [7-((3R,5S)-1-acryloyl-5-methylpyrrolidin-3-yl)-4-amino-6-(cyclopropylethynyl)-N—((R)-1-phenylethyl)-7H-pyrrolo[2,3-d]pyrimidine-5-carboxamide] | – | – | almost non-hygroscopic | 0.01 | 0.06 | 0.11 | 0.16 | 0.21 | 0.27 | 0.33 | 0.39 | 0.47 | 0.51 | 0.59 | – | – | – | –

Further lines, with some results ahead:

change in the powder X-ray diffraction pattern [3] | increase in related substances [3] | hygroscopicity determination [4] | Weight change rate, Adsorption ([4]; relative humidity 5%) [%] | Weight change rate, Desorption ([4]; relative humidity 5%) [%] | Weight change rate, Adsorption ([4]; relative humidity 20%) [%] | Weight change rate, Desorption ([4]; relative humidity 20%) [%] | Weight change rate, Adsorption ([4]; relative humidity 40%) [%] | Weight change rate, Desorption ([4]; relative humidity 40%) [%] | Weight change rate, Adsorption ([4]; relative humidity 60%) [%] | Weight change rate, Desorption ([4]; relative humidity 60%) [%] | Weight change rate, Adsorption ([4]; relative humidity 80%) [%] | Weight change rate, Desorption ([4]; relative humidity 80%) [%] | Weight change rate, Desorption ([4]; relative humidity 95%) [%] | AUC 0-6 hr increase when the dose was increased from 100 mg/kg to 300 mg/kg ([5]; oral) [times] | Cmax increase when the dose was increased from 100 mg/kg to 300 mg/kg ([5]; oral) [times] | Weight change rate, Adsorption ([4]; relative humidity 95%) [%] | SMILES | other results
no change | almost no increase | almost non-hygroscopic | 0.01 | 0.04 | 0.11 | 0.13 | 0.18 | 0.20 | 0.27 | 0.30 | 0.34 | 0.34 | 0.38 | 1.9 | 1.9 | 0.38 | C=CC(=O)N1C[C@H](n2c(C#CC3CC3)c(C(=O)N[C@H](C)c3ccccc3)c3c(N)ncnc32)C[C@@H]1C [type II crystal of compound (I) with 1 equivalent of fumaric] [7-((3R,5S)-1-acryloyl-5-methylpyrrolidin-3-yl)-4-amino-6-(cyclopropylethynyl)-N—((R)-1-phenylethyl)-7H-pyrrolo[2,3-d]pyrimidine-5-carboxamide] | Amount of related substances after storage [3, 9]: 0.15%; Chemical purity after storage [3, 9]: 99.85%; Amount of related substances before storage [3, 9]: 0.15%; Chemical purity before storage [3, 9]: 99.85%; AUC0-6hr [5, 10]: 6.14 µM·h; Cmax [5, 10]: 2740 nM; Tmax [5, 10]: 1.25 h; AUC0-6 hr relative to the value of the type I crystal of compound (I) with the acid ([5]; oral, 300 mg/kg): 2.4 times; AUC0-6 hr relative to the value of the type II crystal of compound (I) ([5]; oral, 300 mg/kg): 2.4 times; Cmax relative to the value of the type I crystal of compound (I) with the acid ([5]; oral, 300 mg/kg): 1.7 times; Cmax relative to the value of the type II crystal of compound (I) ([5]; oral, 300 mg/kg): 1.4 times; AUC0-6hr [5, 11]: 11.9 µM·h; Cmax [5, 11]: 5340 nM; Tmax [5, 11]: 0.5 h
– | – | highly hygroscopic | 0.50 | 0.54 | 1.05 | 1.16 | 1.60 | 1.67 | 2.16 | 2.38 | 3.26 | 3.64 | 6.41 | – | – | 6.41 | C=CC(=O)N1C[C@H](n2c(C#CC3CC3)c(C(=O)N[C@H](C)c3ccccc3)c3c(N)ncnc32)C[C@@H]1C [crystal of compound (I) with 1 equivalent of L-tartaric acid] [7-((3R,5S)-1-acryloyl-5-methylpyrrolidin-3-yl)-4-amino-6-(cyclopropylethynyl)-N—((R)-1-phenylethyl)-7H-pyrrolo[2,3-d]pyrimidine-5-carboxamide] | –
